The values below come from patent US9902702B2, “Spirocycloheptanes as inhibitors of rock” (BRISTOL-MYERS SQUIBB COMPANY, priority 2014, dated 2018).

This assay deals with ROCK2 (Homo sapiens, UniProt O75116). Kind of assay: ROCK assay: phosphorylation of FITC peptide substrate, LABCHIP 3000 mobility shift. Format: biochemical. Particulars: 5 μM ATP, 1.5 μM peptide substrate; read-out: ROCK2 Activity (ROCK IC50 range). Put shortly: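 IC50 values come from curve-fitting percent kinase inhibition across a compound dilution series. The reaction is started with Rho kinase variant in HEPES pH 7.5 buffer with MgCl2, Brij-35 and DTT, with 5 μM ATP, 1.5 μM FITC-labelled peptide and under 2% DMSO. After EDTA quench, product and substrate are separated by microfluidic mobility shift.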
Chain of ROCK2 (O75116 whole entry, species assumed): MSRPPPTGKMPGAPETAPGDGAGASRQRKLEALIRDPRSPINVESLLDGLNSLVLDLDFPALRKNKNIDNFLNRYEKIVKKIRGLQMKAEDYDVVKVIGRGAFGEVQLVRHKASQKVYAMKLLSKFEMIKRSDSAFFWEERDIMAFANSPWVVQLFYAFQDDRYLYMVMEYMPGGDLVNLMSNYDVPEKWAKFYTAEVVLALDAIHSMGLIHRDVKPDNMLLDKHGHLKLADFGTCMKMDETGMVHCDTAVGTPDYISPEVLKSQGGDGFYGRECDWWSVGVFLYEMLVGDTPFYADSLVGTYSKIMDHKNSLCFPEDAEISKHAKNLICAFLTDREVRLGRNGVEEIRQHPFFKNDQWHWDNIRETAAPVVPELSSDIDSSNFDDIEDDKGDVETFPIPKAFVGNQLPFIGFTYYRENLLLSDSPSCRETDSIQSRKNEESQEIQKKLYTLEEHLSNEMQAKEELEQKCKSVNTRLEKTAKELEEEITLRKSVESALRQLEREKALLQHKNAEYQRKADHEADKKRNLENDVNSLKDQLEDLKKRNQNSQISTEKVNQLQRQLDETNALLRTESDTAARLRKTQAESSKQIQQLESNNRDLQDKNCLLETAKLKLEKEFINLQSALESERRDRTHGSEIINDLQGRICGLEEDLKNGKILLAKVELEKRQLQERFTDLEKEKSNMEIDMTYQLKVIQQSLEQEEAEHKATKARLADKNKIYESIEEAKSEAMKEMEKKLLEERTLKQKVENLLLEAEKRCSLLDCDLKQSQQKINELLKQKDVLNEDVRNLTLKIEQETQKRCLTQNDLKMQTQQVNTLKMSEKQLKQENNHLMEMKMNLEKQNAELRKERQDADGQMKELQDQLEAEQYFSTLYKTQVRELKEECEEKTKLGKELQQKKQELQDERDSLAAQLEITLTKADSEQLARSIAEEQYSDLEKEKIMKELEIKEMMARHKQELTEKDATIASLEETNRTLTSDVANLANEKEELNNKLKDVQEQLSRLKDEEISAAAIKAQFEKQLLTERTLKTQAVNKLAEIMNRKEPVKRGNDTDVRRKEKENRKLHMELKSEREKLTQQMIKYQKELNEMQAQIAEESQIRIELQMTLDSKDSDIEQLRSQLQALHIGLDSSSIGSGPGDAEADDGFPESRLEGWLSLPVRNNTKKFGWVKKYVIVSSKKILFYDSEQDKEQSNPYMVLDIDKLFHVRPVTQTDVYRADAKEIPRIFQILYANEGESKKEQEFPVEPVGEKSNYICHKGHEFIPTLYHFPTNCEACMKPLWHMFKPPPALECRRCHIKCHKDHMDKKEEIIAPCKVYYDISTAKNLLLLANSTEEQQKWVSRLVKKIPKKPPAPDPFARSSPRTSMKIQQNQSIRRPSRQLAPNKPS
Usually IC50 stands for the concentration needed to halve the response being measured. In the case of `O=C(NC1CC2(C1)CC(c1n[nH]c(=O)c3ccccc13)C2)c1cnn2cc(OC(CF)CF)ccc12` (stereo not drawn) [Example 131, 6-((1,3-difluoropropan-2-yl)oxy)-N-((αR)-6-(4-oxo-3,4-dihydrophthalazin-1-yl)spiro[3.3]heptan-2-yl)pyrazolo[1,5-α]pyridine-3-carboxamide], the IC50 is 0.2 to 2 nM.

As to `O=C(NC1CC2(C1)CC(c1n[nH]c(=O)c3ccccc13)C2)c1cnn2cc(OC3CCS(=O)(=O)CC3)ccc12` (stereo not drawn) [Example 132, 6-((1,1-dioxidotetrahydro-2H-thiopyran-4-yl)oxy)-N-((αR)-6-(4-oxo-3,4-dihydrophthalazin-1-yl)spiro[3.3]heptan-2-yl)pyrazolo[1,5-α]pyridine-3-carboxamide], the concentration for half-maximal inhibition (IC50) fell in the range of 0.2 to 2 nM.

As for `O=C(NC1CC2(C1)CC(c1n[nH]c(=O)c3ccccc13)C2)c1cnn2cc(OCCC(F)(F)F)ccc12` (stereo not drawn) [Example 133, N-((αR)-6-(4-oxo-3,4-dihydrophthalazin-1-yl)spiro[3.3]heptan-2-yl)-6-(3,3,3-trifluoropropoxy)pyrazolo[1,5-α]pyridine-3-carboxamide], the concentration for half-maximal inhibition (IC50) was 0.2 to 2 nM.

Consider `O=C(NC1CC2(C1)CC(c1n[nH]c(=O)c3ccccc13)C2)c1cnn2cc(OC3CCC(F)(F)CC3)ccc12` (stereo not drawn) [Example 134, 6-((4,4-difluorocyclohexyl)oxy)-N-((αR)-6-(4-oxo-3,4-dihydrophthalazin-1-yl)spiro[3.3]heptan-2-yl)pyrazolo[1,5-α]pyridine-3-carboxamide], for which the IC50 lay within 0.2 to 2 nM.

As to `O=C(NC1CC2(C1)CC(c1n[nH]c(=O)c3ccccc13)C2)c1cnn2cc(OC3CCOCC3)ccc12` (stereo not drawn) [Example 135, N-((αR)-6-(4-oxo-3,4-dihydrophthalazin-1-yl)spiro[3.3]heptan-2-yl)-6-((tetrahydro-2H-pyran-4-yl)oxy)pyrazolo[1,5-α]pyridine-3-carboxamide], the IC50 is 0.2 to 2 nM.

With `COC(=O)N1CC(Oc2ccc3c(C(=O)NC4CC5(C4)CC(c4n[nH]c(=O)c6ccccc46)C5)cnn3c2)C1` (centres unmarked) [Example 136], the 50% inhibitory concentration (IC50) was in the range of 2.01 to 5 nM.

Consider `O=C(NC1CC2(C1)CC(c1n[nH]c(=O)c3ccccc13)C2)c1cnn2cc(O)ccc12` (stereo not drawn) [Example 137, 6-hydroxy-N-((αR)-6-(4-oxo-3,4-dihydrophthalazin-1-yl)spiro[3.3]heptan-2-yl)pyrazolo[1,5-α]pyridine-3-carboxamide], for which the IC50 was in the range of 2.01 to 5 nM.

Regarding `O=C(NC1CC2(C1)CC(c1n[nH]c(=O)c3ccccc13)C2)c1cnn2cc(OC3CC(F)(F)C3)ccc12` (stereo not drawn) [Example 138, 6-(3,3-difluorocyclobutoxy)-N-((αR)-6-(4-oxo-3,4-dihydrophthalazin-1-yl)spiro[3.3]heptan-2-yl)pyrazolo[1,5-α]pyridine-3-carboxamide], the IC50 was 0.2 to 2 nM.

Turning to `O=C(NC1CC2(C1)CC(c1n[nH]c(=O)c3ccccc13)C2)c1cnn2cc(OCCOCC(F)(F)F)ccc12` (stereo not drawn) [Example 139, N-((αR)-6-(4-oxo-3,4-dihydrophthalazin-1-yl)spiro[3.3]heptan-2-yl)-6-(2-(2,2,2-trifluoroethoxy)ethoxy)pyrazolo[1,5-α]pyridine-3-carboxamide], the half-maximal inhibitory concentration (IC50) was 0.2 to 2 nM.

Turning to `O=C(NC1CC2(C1)CC(c1n[nH]c(=O)c3ccccc13)C2)c1cnn2cc(OCc3nnc(C4CC4)s3)ccc12` (stereo not drawn) [Example 140, 6-((5-cyclopropyl-1,3,4-thiadiazol-2-yl)methoxy)-N-((αR)-6-(4-oxo-3,4-dihydrophthalazin-1-yl)spiro[3.3]heptan-2-yl)pyrazolo[1,5-α]pyridine-3-carboxamide], the IC50 lay in the range of 0.2 to 2 nM.

As to `O=C(NC1CC2(C1)CC(c1n[nH]c(=O)c3ccccc13)C2)c1cnn2c(C(F)(F)F)c(OCc3ccccc3)ccc12` (stereo not drawn) [Example 141, 6-(benzyloxy)-N-((αR)-6-(4-oxo-3,4-dihydrophthalazin-1-yl)spiro[3.3]heptan-2-yl)-7-(trifluoromethyl)pyrazolo[1,5-α]pyridine-3-carboxamide], the IC50 is 5.1 to 15 nM.

As for `CC(C)(O)Cn1nc(C(=O)N[C@H]2CC3(C2)C[C@H](c2n[nH]c(=O)c4ccccc42)C3)c2ccc(C3CC3)cc21` (stereo partly drawn) [Example 142, 6-cyclopropyl-1-(2-hydroxy-2-methylpropyl)-N-((aR)-6-(4-oxo-3,4-dihydrophthalazin-1-yl)spiro[3.3]heptan-2-yl)-1H-indazole-3-carboxamide], the IC50 lay in the range of 2.01 to 5 nM.

Take `CC(C)(O)Cn1nc(C(=O)N[C@H]2CC3(C2)C[C@H](c2n[nH]c(=O)c4ccccc42)C3)c2ccc(-c3ccccc3)cc21` (stereo partly drawn) [Example 143, 1-(2-hydroxy-2-methylpropyl)-N-((aR)-6-(4-oxo-3,4-dihydrophthalazin-1-yl)spiro[3.3]heptan-2-yl)-6-phenyl-1H-indazole-3-carboxamide]: the IC50 was in the range of 2.01 to 5 nM.

For `CC(C)(O)Cn1nc(C(=O)NC2CC3(C2)CC(c2n[nH]c(=O)c4ccccc24)C3)c2ccc(-c3ccc(Cl)cc3)cc21` (centres unmarked) [Example 144, 6-(4-chlorophenyl)-1-(2-hydroxy-2-methylpropyl)-N-((αR)-6-(4-oxo-3,4-dihydrophthalazin-1-yl)spiro[3.3]heptan-2-yl)-1H-indazole-3-carboxamide], the IC50 is 5.1 to 15 nM.

For the compound `Cn1ccc(-c2ccc3c(C(=O)NC4CC5(C4)CC(c4n[nH]c(=O)c6ccccc46)C5)nn(CC(C)(C)O)c3c2)n1` (centres unmarked) [Example 145, 1-(2-hydroxy-2-methylpropyl)-6-(1-methyl-1H-pyrazol-3-yl)-N-((αR)-6-(4-oxo-3,4-dihydrophthalazin-1-yl)spiro[3.3]heptan-2-yl)-1H-indazole-3-carboxamide], the IC50 lay within 2.01 to 5 nM.

As to `Cn1nccc1-c1ccc2c(C(=O)NC3CC4(C3)CC(c3n[nH]c(=O)c5ccccc35)C4)nn(CC(C)(C)O)c2c1` (centres unmarked) [Example 146, 1-(2-hydroxy-2-methylpropyl)-6-(1-methyl-1H-pyrazol-5-yl)-N-((αR)-6-(4-oxo-3,4-dihydrophthalazin-1-yl)spiro[3.3]heptan-2-yl)-1H-indazole-3-carboxamide], the IC50 was 2.01 to 5 nM.

Turning to `Cn1cc(-c2ccc3c(C(=O)NC4CC5(C4)CC(c4n[nH]c(=O)c6ccccc46)C5)nn(CC(C)(C)O)c3c2)cn1` (centres unmarked) [Example 147, 1-(2-hydroyx-2-methylpropyl)-6-(1-methyl-1H-pyrazol-4-yl)-N-((αR)-6-(4-oxo-3,4-dihydrophthalazin-1-yl)spiro[3.3]heptan-2-yl)-1H-indazole-3-carboxamide], the IC50 lay within 2.01 to 5 nM.

Regarding `CC(C)(O)Cn1nc(C(=O)NC2CC3(C2)CC(c2n[nH]c(=O)c4ccccc24)C3)c2ccc(C=Cc3ccccc3)cc21` (centres unmarked) [Example 148, 1-(2-hydroxy-2-methylpropyl)-N-((αR)-6-(4-oxo-3,4-dihydrophthalazin-1-yl)spiro[3.3]heptan-2-yl)-6-((E)-styryl)-1H-indazole-3-carboxamide], the IC50 lay in the range of 5.1 to 15 nM.

In the case of `CC(C)(O)Cn1nc(C(=O)NC2CC3(C2)CC(c2n[nH]c(=O)c4ccccc24)C3)c2ccc(C=CC3CC3)cc21` (centres unmarked) [Example 149, 6-((E)-2-cyclopropylvinyl)-1-(2-hydroxy-2-methylpropyl)-N-((αR)-6-(4-oxo-3,4-dihydrophthalazin-1-yl)spiro[3.3]heptan-2-yl)-1H-indazole-3-carboxamide], the IC50 lay in the range of 5.1 to 15 nM.

`COc1cccc(-c2ccc3c(C(=O)NC4CC5(C4)CC(c4n[nH]c(=O)c6ccccc46)C5)nn(CC(C)(C)O)c3c2)n1` (centres unmarked) [Example 150, 1-(2-hydroxy-2-methylpropyl)-6-(6-methoxypyridin-2-yl)-N-((αR)-6-(4-oxo-3,4-dihydrophthalazin-1-yl)spiro[3.3]heptan-2-yl)-1H-indazole-3-carboxamide]: the IC50 is 2.01 to 5 nM.

Regarding `CC(C)(O)Cn1nc(C(=O)NC2CC3(C2)CC(c2n[nH]c(=O)c4ccccc24)C3)c2ccc(/C=C\C3CC3)cc21` (centres unmarked) [Example 151, 6-((Z)-2-cyclopropylvinyl)-1-(2-hydroxy-2-methylpropyl)-N-((αR)-6-(4-oxo-3,4-dihydrophthalazin-1-yl)spiro[3.3]heptan-2-yl)-1H-indazole-3-carboxamide], the IC50 fell in the range of 5.1 to 15 nM.

For the compound `CC(C)(O)Cn1nc(C(=O)N[C@H]2CC3(C2)C[C@H](c2n[nH]c(=O)c4ccccc42)C3)c2ccc(Br)cc21` (some centres unmarked) [Example 152, 6-bromo-1-(2-hydroxy-2-methylpropyl)-N-((αR)-6-(4-oxo-3,4-dihydrophthalazin-1-yl)spiro[3.3]heptan-2-yl)-1H-indazole-3-carboxamide], the half-maximal inhibitory concentration (IC50) is 2.01 to 5 nM.

Consider `COc1ccc(-c2ccc3c(C(=O)NC4CC5(C4)CC(c4n[nH]c(=O)c6ccccc46)C5)nn(CC(C)(C)O)c3c2)cc1` (centres unmarked) [Example 153, 1-(2-hydroxy-2-methylpropyl)-6-(4-methoxyphenyl)-N-((αR)-6-(4-oxo-3,4-dihydrophthalazin-1-yl)spiro[3.3]heptan-2-yl)-1H-indazole-3-carboxamide], for which the IC50 lay in the range of 2.01 to 5 nM.

As to `Cn1cc(-c2ccc3c(C(=O)NC4CC5(C4)CC(c4n[nH]c(=O)c6ccccc46)C5)nn(CC(C)(C)O)c3c2)nn1` (centres unmarked) [Example 154, 1-(2-hydroxy-2-methylpropyl)-6-(1-methyl-1H-1,2,3-triazol-4-yl)-N-((αR)-6-(4-oxo-3,4-dihydrophthalazin-1-yl)spiro[3.3]heptan-2-yl)-1H-indazole-3-carboxamide], the concentration for half-maximal inhibition (IC50) is 2.01 to 5 nM.

With `Cc1noc(C)c1-c1ccc2c(C(=O)NC3CC4(C3)CC(c3n[nH]c(=O)c5ccccc35)C4)nn(CC(C)(C)O)c2c1` (centres unmarked) [Example 155, 6-(3,5-dimethylisoxazol-4-yl)-1-(2-hydroxy-2-methylpropyl)-N-((αR)-6-(4-oxo-3,4-dihydrophthalazin-1-yl)spiro[3.3]heptan-2-yl)-1H-indazole-3-carboxamide], the IC50 fell in the range of 2.01 to 5 nM.

For `CC(C)(O)Cn1nc(C(=O)NC2CC3(C2)CC(c2n[nH]c(=O)c4ccccc24)C3)c2ccc(-c3cccc(Cl)c3)cc21` (centres unmarked) [Example 156, 6-(3-chlorophenyl)-1-(2-hydroxy-2-methylpropyl)-N-((αR)-6-(4-oxo-3,4-dihydrophthalazin-1-yl)spiro[3.3]heptan-2-yl)-1H-indazole-3-carboxamide], the concentration for half-maximal inhibition (IC50) was in the range of 5.1 to 15 nM.
